One experiment deals with D(2) dopamine receptor (Homo sapiens, UniProt P14416). Kind of experiment: Displacement of [3H]-(R)-(+)7-OH-DPAT from human dopamine D2 receptor expressed in HEK293 cell membranes incubated for 90 mins by microbeta scintillation counting analysis. In general terms: In a radioligand displacement assay an active substance lowers the binding of a labelled ligand.
A further experiment addresses D(3) dopamine receptor (Homo sapiens, UniProt P35462). Kind of experiment: Displacement of [3H]-(R)-(+)7-OH-DPAT from human dopamine D3 receptor expressed in HEK293 cell membranes incubated for 90 mins by microbeta scintillation counting analysis.

D(3) dopamine receptor, sequence (P35462 whole entry): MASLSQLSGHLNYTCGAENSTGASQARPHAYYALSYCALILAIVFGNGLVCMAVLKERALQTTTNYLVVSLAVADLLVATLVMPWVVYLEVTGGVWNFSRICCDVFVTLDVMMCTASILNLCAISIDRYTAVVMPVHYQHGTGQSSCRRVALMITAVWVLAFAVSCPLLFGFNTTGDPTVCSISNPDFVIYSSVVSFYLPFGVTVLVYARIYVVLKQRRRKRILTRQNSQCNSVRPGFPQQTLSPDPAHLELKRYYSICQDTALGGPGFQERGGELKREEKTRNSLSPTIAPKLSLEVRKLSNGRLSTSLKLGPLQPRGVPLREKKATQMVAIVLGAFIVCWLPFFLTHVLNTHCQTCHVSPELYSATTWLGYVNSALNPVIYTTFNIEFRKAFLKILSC
D(2) dopamine receptor, sequence (P14416 whole entry): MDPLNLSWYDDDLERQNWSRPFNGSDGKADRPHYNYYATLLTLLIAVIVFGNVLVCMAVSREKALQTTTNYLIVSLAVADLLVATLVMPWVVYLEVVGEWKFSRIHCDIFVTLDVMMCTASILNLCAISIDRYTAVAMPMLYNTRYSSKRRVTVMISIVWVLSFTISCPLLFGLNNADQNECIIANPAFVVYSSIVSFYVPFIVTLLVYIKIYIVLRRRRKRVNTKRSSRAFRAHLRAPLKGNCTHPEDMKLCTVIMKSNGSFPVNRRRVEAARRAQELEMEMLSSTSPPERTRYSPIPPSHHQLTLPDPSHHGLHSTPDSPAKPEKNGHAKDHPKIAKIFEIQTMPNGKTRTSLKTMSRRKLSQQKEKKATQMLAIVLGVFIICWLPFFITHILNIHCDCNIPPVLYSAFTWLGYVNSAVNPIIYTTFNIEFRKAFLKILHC

Consider `CN(CC[C@@H]1CC[C@H](CNC(=O)c2cc3ccccc3[nH]2)C1)[C@@H]1Cc2cccc3[nH]c(=O)n(c23)C1`, for which the Ki (in general, the equilibrium dissociation constant of an inhibitor or competing ligand from its target) at D(2) dopamine receptor turned out to be 0.002 µM; on D(3) dopamine receptor it was 0.02 µM.
On to `CN(CC[C@@H]1CC[C@@H](CNC(=O)c2cc3ccccc3[nH]2)C1)[C@@H]1Cc2cccc3[nH]c(=O)n(c23)C1`, for which the Ki at D(2) dopamine receptor was 0.0046 µM; at D(3) dopamine receptor, 0.077 µM.

Source of the values: BindingDB's records for PubMed 34699207 (National Institute On Drug Abuse?Intramural Research Program, 2021).
